Values of other authors, collected in US20170027865A1, “Dry Pharmaceutical Compositions for Topical Delivery of Oral Medications, Nasal Delivery and to Treat Ear Disorders” (CMPD LICENSING LLC, priority 2013, published 2017).

Experiments:
[1] = test system: Paracoccidioides brasiliensis
Campylobacter jejuni = settings: Gram: neg
Moraxella catarrhalis = settings: Gram: neg
Acinetobacter baumannii = settings: Gram: neg
Bordetella pertussis = settings: Gram: neg
Haemophilus influenzae = settings: Gram: neg
[2] = test system: Acinetobacter calcoaceticus; settings: Gram: neg
Streptococcus pneumoniae = settings: Gram: pos
Shigella sonnei = settings: Gram: neg
Peptostreptococcus = settings: Gram: pos
[3] = test system: Methicillin Resistant Staph aureus (MRSA); settings: Gram: pos
Streptococcus agalactiae = settings: Gram: pos
Streptococcus pyogenes = settings: Gram: pos
[4] = test system: Staphylococcus aureus (MSSA); settings: Gram: pos
Pseudomonas fluorescens = settings: Gram: neg
[5] = test system: Corynebacterium urealyticum; settings: Gram: pos
Enterobacter aerogenes = settings: Gram: neg
Corynebacterium jeikeium = settings: Gram: pos
Chlamydia pneumoniae = settings: Gram: n/a
Escherichia coli = settings: Gram: neg
Providencia rettgeri = settings: Gram: neg
Clostridium difficile = settings: Gram: anaer
[6] = test system: Klebsiella (Calymmatobacterium) granulomatis; settings: Gram: neg
[7] = test system: Staphylococcus epidermidis; settings: Gram: pos
Proteus mirabilis = settings: Gram: neg
Salmonella typhi = settings: Gram: neg
Klebsiella pneumoniae = settings: Gram: neg
Shigella boydii = settings: Gram: neg
Pseudomonas aeruginosa = settings: Gram: neg
[8] = test system: Haemophilus parainfluenzae; settings: Gram: neg
Morganella morganii = settings: Gram: neg
Acinetobacter lwoffii = settings: Gram: neg
Bacteroides fragilis = settings: Gram: anaer
Shigella dysenteriae = settings: Gram: neg
Vibrio cholerae = settings: Gram: neg
Enterococcus faecalis = settings: Gram: pos
Shigella flexneri = settings: Gram: neg
Neisseria meningitidis = settings: Gram: neg
Haemophilus ducreyi = settings: Gram: neg
Neisseria gonorrhoeae = settings: Gram: neg
Enterobacter sakazakii = settings: Gram: neg
Bartonella bacilliformis = settings: Gram: neg
Chlamydia trachomatis = settings: Gram: n/a
Diphtheroids = settings: Gram: pos
[9] = test system: Viridans group streptococci; settings: Gram: pos
Klebsiella oxytoca = settings: Gram: neg
Citrobacter diversus = settings: Gram: neg
Serratia marcescens = settings: Gram: neg
Mycoplasma pneumoniae = settings: Gram: n/a
Proteus vulgaris = settings: Gram: neg
Providencia stuartii = settings: Gram: neg
Citrobacter freundii = settings: Gram: neg
Enterobacter cloacae = settings: Gram: neg

C[C@@H]1[C@H](O)[C@@H](C)/C=C/C=C/C=C/C=C/C=C/C=C/C=C/[C@H](O[C@@H]2O[C@H](C)[C@@H](O)[C@H](N)[C@@H]2O)C[C@@H]2O[C@](O)(C[C@@H](O)C[C@@H](O)[C@H](O)CC[C@@H](O)C[C@@H](O)CC(=O)O[C@H]1C)C[C@H](O)[C@H]2C(=O)O [Amphotericin, amphotericin B]
Expected coverage (Cryptococcus neoformans): yes | Expected coverage (Aspergillus flavus): yes | Expected coverage (Aspergillus terreus): yes | Expected coverage [1]: yes | Expected coverage (Coccidioides immitis): yes | Expected coverage (Aspergillus fumigatus): yes | Expected coverage (Histoplasma capsulatum): yes | Expected coverage (Candida species): yes | Expected coverage (Leishmania donovani): yes | Expected coverage (Aspergillus niger): yes | Expected coverage (Leishmania infantum): yes | Expected coverage (Blastomyces dermatitidis): yes

OC(Cn1cncn1)(Cn1cncn1)c1ccc(F)cc1F [Fluconazole, fluconazole]
Expected coverage (Cryptococcus neoformans): yes | Expected coverage (Aspergillus flavus): yes | Expected coverage (Coccidioides immitis): yes | Expected coverage (Aspergillus fumigatus): yes | Expected coverage (Histoplasma capsulatum): yes | Expected coverage (Candida species): yes | Expected coverage (Blastomyces dermatitidis): yes

CN[C@H](CC(C)C)C(=O)N[C@H]1C(=O)N[C@@H](CC(N)=O)C(=O)N[C@H]2C(=O)N[C@H]3C(=O)N[C@H](C(=O)N[C@H](C(=O)O)c4cc(O)cc(O)c4-c4cc3ccc4O)[C@H](O)c3ccc(c(Cl)c3)Oc3cc2cc(c3O[C@@H]2O[C@H](CO)[C@@H](O)[C@H](O)[C@H]2O[C@H]2C[C@](C)(N)[C@H](O)[C@H](C)O2)Oc2ccc(cc2Cl)[C@H]1O [Vancomycin, vancomycin]
Expected coverage (Campylobacter jejuni): no | Expected coverage (Moraxella catarrhalis): no | Expected coverage (Acinetobacter baumannii): no | Expected coverage (Bordetella pertussis): no | Expected coverage (Haemophilus influenzae): no | Expected coverage [2]: no | Expected coverage (Chlamydia psittaci): no | Expected coverage (Streptococcus pneumoniae): yes | Expected coverage (Shigella sonnei): no | Expected coverage (Peptostreptococcus): yes | Expected coverage [3]: yes | Expected coverage (Streptococcus agalactiae): yes | Expected coverage (Streptococcus pyogenes): yes | Expected coverage [4]: yes | Expected coverage (Pseudomonas fluorescens): no | Expected coverage [5]: yes | Expected coverage (Enterobacter aerogenes): no | Expected coverage (Corynebacterium jeikeium): yes | Expected coverage (Legionella pneumophila): no | Expected coverage (Chlamydia pneumoniae): no | Expected coverage (Escherichia coli): no | Expected coverage (Francisella tularensis): no | Expected coverage (Providencia rettgeri): no | Expected coverage (Clostridium difficile): yes | Expected coverage [6]: no | Expected coverage [7]: yes | Expected coverage (Proteus mirabilis): no | Expected coverage (Salmonella typhi): no | Expected coverage (Klebsiella pneumoniae): no | Expected coverage (Shigella boydii): no | Expected coverage (Clostridium perfringens): no | Expected coverage (Pseudomonas aeruginosa): no | Expected coverage (Rickettsiae): no | Expected coverage [8]: no | Expected coverage (Morganella morganii): no | Expected coverage (Acinetobacter lwoffii): no | Expected coverage (Brucella species): no | Expected coverage (Bacteroides fragilis): no | Expected coverage (Yersinia pestis): no | Expected coverage (Shigella dysenteriae): no | Expected coverage (Vibrio cholerae): no | Expected coverage (Enterococcus faecalis): yes | Expected coverage (Shigella flexneri): no | Expected coverage (Neisseria meningitidis): no | Expected coverage (Haemophilus ducreyi): no | Expected coverage (Neisseria gonorrhoeae): no | Expected coverage (Enterobacter sakazakii): no | Expected coverage (Bartonella bacilliformis): no | Expected coverage (Chlamydia trachomatis): no | Expected coverage (Diphtheroids): yes | Expected coverage [9]: yes | Expected coverage (Klebsiella oxytoca): no | Expected coverage (Citrobacter diversus): no | Expected coverage (Serratia marcescens): no | Expected coverage (Mycoplasma pneumoniae): no | Expected coverage (Proteus vulgaris): no | Expected coverage (Providencia stuartii): no | Expected coverage (Citrobacter freundii): no | Expected coverage (Enterobacter cloacae): no

C[C@@H](c1ncncc1F)[C@](O)(Cn1cncn1)c1ccc(F)cc1F [Voriconazole, voriconazole]
Expected coverage (Fusarium species): yes | Expected coverage (Aspergillus flavus): yes | Expected coverage (Aspergillus terreus): yes | Expected coverage (Aspergillus fumigatus): yes | Expected coverage (Candida species): yes | Expected coverage (Aspergillus niger): yes | Expected coverage (Scedosporium apiospermum): yes
